pIC50: −log10 of the molar value.
Target: T1, BbKst-kinase (serine/threonine protein kinase BbKst)
T1 construct: kinase domain (from 2233 to 3342 bp of cDNA), His-fused, expressed in E. coli BL21
Assay: in vitro […] kinase assay with purified kinase domain
Assay type: biochemical, Bambusa balcooa

O=c1c(O)c(-c2ccc(O)c(O)c2)oc2cc(O)cc(O)c12 [quercetin]
pIC50: 8.15
